From PMC314469, “Protein Interaction Networks by Proteome Peptide Scanning” (PLoS Biology, 2004)

Tested on: Myo5 SH3 domain
Assay: SPOT analysis of cellulose-bound peptides (WISE), Myo5 SH3 domain (Dataset S4)
Assay type: binding, Saccharomyces cerevisiae
Details: for The normalized value in BLU units: Myo5 SH3 domain
[1] = SPOT analysis of cellulose-bound peptides probed with Myo5 SH3 domain, normalized value
[2] = SPOT analysis of cellulose-bound 14-mer yeast proteome peptides, normalized value, mean where the peptide was synthesized more than once
[3] = SPOT analysis of membrane-synthesized peptides probed with Myo5 SH3 domain, normalized value
[4] = SPOT analysis of membrane-bound peptides, normalized value (see methods)

## QPTNFQYPPPPFGQ
[1]
  The normalized value in BLU units (SPOT analysis, Myo5 SH3): 224.1 BLU

## NPQSLARPPPPKRI
[2]
  The normalized value in BLU units: 247.6 BLU

## KLEDLNEPLSPWIS
[1]
  The normalized value in BLU units (SPOT analysis, Myo5 SH3): 71.1 BLU

## TTTIKNRPVPPPLP
[3]
  The normalized value in BLU units (SPOT analysis, Myo5 SH3): 1868.9 BLU

## REDAHEDPVSPKAG
[2]
  The normalized value in BLU units: 144.8 BLU

## LSPAKARPSFPHND
[3]
  The normalized value in BLU units (SPOT analysis, Myo5 SH3): 212.8 BLU

## ILAVKKNPQSPMYT
[4]
  The normalized value in BLU units: 175.4 BLU

## KLAPLNCPSLPTTN
[2]
  The normalized value in BLU units: 211.6 BLU

## NLHGYGHPNPPNEK
[2]
  The normalized value in BLU units: 216.6 BLU

## HELVKSDPHFPYGT
[4]
  The normalized value in BLU units: 229.2 BLU

## NLSLRYAPNLPPVI
[3]
  The normalized value in BLU units (SPOT analysis, Myo5 SH3): 778.6 BLU

## YWKLFFQPEYPVRM
[2]
  The normalized value in BLU units: 144.2 BLU

## LNTMKKRPAPPSLP
[3]
  The normalized value in BLU units (SPOT analysis, Myo5 SH3): 22346.5 BLU

## LLVTKERPRFPEDD
[4]
  The normalized value in BLU units: 33.7 BLU

## ALGFYRAPGSPAPA
[1]
  The normalized value in BLU units (SPOT analysis, Myo5 SH3): 100.8 BLU

## LFGIRNNPFIPITG
[4]
  The normalized value in BLU units: 169.8 BLU

## FIKNKAKPLIPIEL
[4]
  The normalized value in BLU units: 656.3 BLU

## TELLKTLPFYPTPS
[2]
  The normalized value in BLU units: 77.3 BLU

## LNFPKNIPTIPFYV
[3]
  The normalized value in BLU units (SPOT analysis, Myo5 SH3): 255.7 BLU

## VKPTKLEPENPQKP
[3]
  The normalized value in BLU units (SPOT analysis, Myo5 SH3): 91.3 BLU

## KITKKLGPKLPKAS
[3]
  The normalized value in BLU units (SPOT analysis, Myo5 SH3): 680.7 BLU

## LPFMYLLPRFPSHI
[1]
  The normalized value in BLU units (SPOT analysis, Myo5 SH3): 454.8 BLU

## TEGKYAPPSQPSMA
[1]
  The normalized value in BLU units (SPOT analysis, Myo5 SH3): 222.8 BLU

## IPTSHAPPLPPTAP
[2]
  The normalized value in BLU units: 43593.6 BLU

## QPPDRNLPSHPSSN
[3]
  The normalized value in BLU units (SPOT analysis, Myo5 SH3): 155.8 BLU

## EARPYSEPSEPEDS
[1]
  The normalized value in BLU units (SPOT analysis, Myo5 SH3): 208.3 BLU

## TSISRISPQDPEAK
[3]
  The normalized value in BLU units (SPOT analysis, Myo5 SH3): 194.2 BLU

## MAEFRRVPLPPMAE
[2]
  The normalized value in BLU units: 442.6 BLU

## KELIYKQPSGPGLV
[1]
  The normalized value in BLU units (SPOT analysis, Myo5 SH3): 79.3 BLU

## QLRSLFKPFGPILN
[2]
  The normalized value in BLU units: 369.9 BLU

## PPQMRSNPQQPPQD
[3]
  The normalized value in BLU units (SPOT analysis, Myo5 SH3): 268.2 BLU

## YKNRKNLPTIPIRL
[3]
  The normalized value in BLU units (SPOT analysis, Myo5 SH3): 960.6 BLU

## APKKWKAPKGPKPT
[2]
  The normalized value in BLU units: 1010.5 BLU

## NIPTKSPPKSPKHK
[3]
  The normalized value in BLU units (SPOT analysis, Myo5 SH3): 12462.9 BLU

## LDTHKESPLRPKVR
[4]
  The normalized value in BLU units: 199.3 BLU

## ILHQLGAPSIPENL
[1]
  The normalized value in BLU units (SPOT analysis, Myo5 SH3): 174.0 BLU

## SPRHYNVPSSPIAP
[1]
  The normalized value in BLU units (SPOT analysis, Myo5 SH3): 232.7 BLU

## DILKKESPDVPLFD
[3]
  The normalized value in BLU units (SPOT analysis, Myo5 SH3): 146.1 BLU

## SKVNKVAPDHPFIQ
[2]
  The normalized value in BLU units: 72.1 BLU

## LTLTKWDPSKPISL
[4]
  The normalized value in BLU units: 231.0 BLU

## QFALKNTPITPGSC
[4]
  The normalized value in BLU units: 111.3 BLU

## SLISMETPEQPHQQ
[1]
  The normalized value in BLU units (SPOT analysis, Myo5 SH3): 146.8 BLU

## VPGGMSIPGAPQGA
[1]
  The normalized value in BLU units (SPOT analysis, Myo5 SH3): 139.5 BLU

## AFYYKYYPVEPNCN
[3]
  The normalized value in BLU units (SPOT analysis, Myo5 SH3): 187.7 BLU

## LPAVFSAPIRPDIV
[2]
  The normalized value in BLU units: 201.8 BLU

## LLPTKLIPSIPGGK
[3]
  The normalized value in BLU units (SPOT analysis, Myo5 SH3): 172.0 BLU

## NASAMPAPYMPYYY
[1]
  The normalized value in BLU units (SPOT analysis, Myo5 SH3): 225.5 BLU

## GFVFFIAPHLPVDL
[2]
  The normalized value in BLU units: 507.5 BLU

## YAVGRIVPDSPTYD
[3]
  The normalized value in BLU units (SPOT analysis, Myo5 SH3): 189.3 BLU

## SKRMKALPKGPAAL
[2]
  The normalized value in BLU units: 821.6 BLU

## YLNNLAEPLIPLSL
[1]
  The normalized value in BLU units (SPOT analysis, Myo5 SH3): 222.0 BLU

## LLYLMTYPQQPMVK
[2]
  The normalized value in BLU units: 161.7 BLU

## EIPSKDHPYDPEKD
[4]
  The normalized value in BLU units: 51.8 BLU

## LTIFKRPPKQPGHQ
[4]
  The normalized value in BLU units: 702.9 BLU

## EFSPHSTPVTPRRL
[2]
  The normalized value in BLU units: 114.0 BLU

## GTRPKILPKIPTGA
[3]
  The normalized value in BLU units (SPOT analysis, Myo5 SH3): 772.9 BLU

## RMQQKNSPAFPTHS
[4]
  The normalized value in BLU units: 1283.9 BLU

## TYIWRYLPAPPVCI
[4]
  The normalized value in BLU units: 444.5 BLU

## MYGSKFIPFGPKCQ
[3]
  The normalized value in BLU units (SPOT analysis, Myo5 SH3): 289.9 BLU

## WFDLKGLPRQPEPL
[3]
  The normalized value in BLU units (SPOT analysis, Myo5 SH3): 101.7 BLU

## KVQIKKVPTDPSSS
[4]
  The normalized value in BLU units: 191.2 BLU

## AEVYYGPPTDPRKQ
[1]
  The normalized value in BLU units (SPOT analysis, Myo5 SH3): 83.5 BLU

## PTVQKFSPHPPTTL
[4]
  The normalized value in BLU units: 213.4 BLU

## NALKLIHPFMPFIS
[2]
  The normalized value in BLU units: 170.3 BLU

## FEMVFRHPEQPHMI
[2]
  The normalized value in BLU units: 309.9 BLU

## DEPIRYAPGDPIEK
[3]
  The normalized value in BLU units (SPOT analysis, Myo5 SH3): 106.5 BLU

## SGSGRRYPQTPSYY
[4]
  The normalized value in BLU units: 435.6 BLU

## LYREREEPPLPKRI
[2]
  The normalized value in BLU units: 112.3 BLU

## KKNDRPSPLKPIQH
[4]
  The normalized value in BLU units: 340.9 BLU

## ITRARYMPQDPNIV
[3]
  The normalized value in BLU units (SPOT analysis, Myo5 SH3): 190.2 BLU

## YDLTRFLPNHPGGQ
[4]
  The normalized value in BLU units: 80.6 BLU

## SRVTRKRPREPKST
[2]
  The normalized value in BLU units: 829.0 BLU
